Data published in patent publication US20070082920A1, “NAD+-dependent DNA ligase inhibitors” (priority 2005, published 2007).

What was measured:
[1] = tested on: Haemophilus influenzae ATCC 49766; experiment: MIC, broth microdilution (CLSI), H. influenzae; type: cell-based; parameters: unit not given beside the values
Protocol: (§1) The compounds of Formulas 1-VIII were evaluated as inhibitors of NAD+-dependent DNA ligase inhibitors. Their antimicrobial activity was evaluated against bacteria using the broth microdilution method as described by Clinical Laboratory Standards Institute (formerly NCCLS). Activity was assessed against the following bacterial strains: Staphylococcus aureus ATCC 29213, Streptococcus pneumoniae ATCC 49619, Escherichia coli ATCC 25922, E. coli CGSC 5633 (ToIC mutant), Haemophilus influenzae ATCC 49766, Streptococcus pyogenes ATCC 19615, Moraxella catterhalis ATCC 25238, Enterococcus faecalis ATCC 29212. The lowest concentration of compound which inhibited visual growth of each bacterium, the minimum inhibitory concentration (MIC), was determined.

[2] = Acute toxicity, Alamar blue cell viability, NIH 3T3; type: cell-based; conditions: mouse
Protocol: (§2) Acute toxicity was assessed against two mammalian cell lines, HepG2 (human hepatocyte) and NIH 3T3 (mouse fibroblast). Cell viability was measured by an in vitro assay using Alamar blue. The concentration of compound which inhibited 50% of the cell growth (LC50) was determined.

[3] = tested on: E. coli CGSC 5633 (ToIC mutant); experiment: MIC, broth microdilution (CLSI), E. coli CGSC 5633; type: cell-based, Escherichia coli; parameters: unit not given beside the values
Protocol: as §1

[4] = tested on: Streptococcus pyogenes ATCC 19615; experiment: MIC, broth microdilution (CLSI), S. pyogenes; type: cell-based
Protocol: as §1

[5] = Acute toxicity, Alamar blue cell viability, HepG2; type: cell-based; conditions: human
Protocol: as §2

[6] = tested on: Escherichia coli ATCC 25922; experiment: MIC, broth microdilution (CLSI), E. coli ATCC 25922; type: cell-based; parameters: unit not given here
Protocol: as §1

[7] = tested on: Enterococcus faecalis ATCC 29212; experiment: MIC, broth microdilution (CLSI), E. faecalis; type: cell-based; parameters: unit not given here
Protocol: as §1

[8] = tested on: Staphylococcus aureus ATCC 29213; experiment: MIC, broth microdilution (CLSI), S. aureus; type: cell-based; conditions: lowest concentration inhibiting visual growth
Protocol: as §1

[9] = tested on: Streptococcus pneumoniae ATCC 49619; experiment: MIC, broth microdilution (CLSI), S. pneumoniae; type: cell-based
Protocol: as §1

[10] = biological target: DNA ligase enzyme (NAD+-dependent DNA ligase) (Streptococcus pneumoniae serotype 4, UniProt Q97QT2); experiment: DNA ligase AMP release assay (luciferase readout); type: biochemical; conditions: purified enzyme from S. pneumoniae
DNA ligase enzyme (NAD+-dependent DNA ligase), sequence (Q97QT2 whole entry): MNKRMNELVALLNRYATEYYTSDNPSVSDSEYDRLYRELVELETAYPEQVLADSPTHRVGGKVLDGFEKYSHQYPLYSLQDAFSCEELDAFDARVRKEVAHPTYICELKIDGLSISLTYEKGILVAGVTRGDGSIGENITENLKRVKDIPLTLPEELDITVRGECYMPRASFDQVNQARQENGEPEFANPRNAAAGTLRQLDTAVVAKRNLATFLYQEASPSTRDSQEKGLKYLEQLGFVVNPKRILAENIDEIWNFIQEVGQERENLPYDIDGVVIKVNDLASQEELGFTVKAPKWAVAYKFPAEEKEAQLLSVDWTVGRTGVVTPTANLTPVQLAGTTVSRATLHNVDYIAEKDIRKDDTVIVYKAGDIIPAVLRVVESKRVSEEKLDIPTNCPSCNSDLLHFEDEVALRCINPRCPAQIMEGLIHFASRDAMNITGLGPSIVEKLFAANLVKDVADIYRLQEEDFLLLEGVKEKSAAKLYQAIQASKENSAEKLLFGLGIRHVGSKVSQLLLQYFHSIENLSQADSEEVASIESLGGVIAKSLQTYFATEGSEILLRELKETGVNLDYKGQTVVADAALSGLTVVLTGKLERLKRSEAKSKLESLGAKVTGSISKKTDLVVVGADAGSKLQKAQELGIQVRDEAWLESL
Protocol: Activity against DNA ligase enzyme was measured using purified enzyme from S. pneumoniae. An AMP release assay was used to assess activity of compounds against the enzyme. AMP, released as a result of the ligation of oligonucleotides, is converted to ATP, which is then measured using luciferase enzyme. The concentration of compound which inhibited 50% of the ligation activity of the enzyme (IC50) was determined.

[11] = tested on: Moraxella catterhalis ATCC 25238; experiment: MIC, broth microdilution (CLSI), M. catarrhalis; type: cell-based
Protocol: as §1

[12] = tested on: NAD+-dependent DNA ligase; conditions: specific DHFR inhibitors; background; cited from earlier work
[13] = NIH 3T3 cells, Alamar blue, 50% inhibition of cell growth, read-out: Acute Tox LC50 μM/ NIH-3T3
[14] = HepG2 cells, Alamar blue, 50% inhibition of cell growth, read-out: Acute Tox LC50 μM/ HepG2

Compound	MIC H. influenzae [1]	CC50 [2] [µM]	MIC E. coli CGSC 5633 [3]	MIC S. pyogenes [4]	CC50 [5] [µM]	MIC E. coli ATCC 25922 [6]	MIC E. faecalis [7]	MIC S. aureus ATCC 29213 [8]	MIC S. pneumoniae [9]	IC50 [10] [µM]	MIC M. catarrhalis [11]	CC50 [2, 13] [µM]	CC50 [5, 14] [µM]	inhibition of NAD+-dependent DNA ligase (in words) [12]
Cc1c(Cc2ccccc2)c(NCc2ccc(F)c(F)c2)nc2nc(N)nc(N)c12 [II-b]	64	2.94	0.125	1	14	32	1	4	4	12.6	2	–	–	–
Cc1c(Cc2ccccc2)c(N(C)C2CCCCC2)nc2nc(N)nc(N)c12 [II-c]	>128	5.13	<0.125	2	15	128	2	4	4	11.3	2	–	–	–
Cc1c(N(C)C2CCCCC2)nc2nc(N)nc(N)c2c1C [II-e]	–	10.9	0.125	2 to 8	19	64	1	32	4	79.1	4 to 8	–	–	–
Cc1cc(NCc2ccc(Cl)c(C(F)(F)F)c2)nc2nc(N)nc(N)c12 [III-f]	16	8.32	<0.125	2	15.2	16	1	8	1	–	2	–	–	–
Cc1cc(Nc2ccc3c(c2)OCCCO3)nc2nc(N)nc(N)c12 [III-p]	–	15.6	0.125	–	20	64	0.5	128	4	11.4	16	–	–	–
COc1cc(CN(C)c2cc(C)c3c(N)nc(N)nc3n2)cc(OC)c1OC [IV-a]	64	–	<0.125	64	–	15	2	64	4	15.2	16	–	–	–
COc1cc(CN(C)c2cc(C)c3c(N)nc(N)nc3n2)cc(OC)c1 [IV-c]	32	14.6	<0.125	8	37.4	16	0.5	32	0.5	–	1	–	–	–
Cc1cc(N(C)C2CCCCC2)nc2nc(N)nc(N)c12 [IV-d]	51	12.8	0.125	32	23.4	64	2	64	8	15.2	16	–	–	–
CCCc1cc(N(C)C2CCCCC2)nc2nc(N)nc(N)c12 [IV-e]	–	9.9	0.5	1	15.1	128	1	32	2	80.6	4	–	–	–
Cc1cc(N2CCCc3ccccc32)nc2nc(N)nc(N)c12 [V-a]	16	11.5	<0.125	32	27.1	64	<0.125	32	8	–	16	–	–	–
Cc1cc(N2Cc3ccccc3C2)nc2nc(N)nc(N)c12 [V-b]	>128	8.09	2	16	8.85	64	8	16	8	7.35	32	–	–	–
Nc1nc(N)c2c3c(c(NCc4ccc(F)c(F)c4)nc2n1)CCCC3 [VII-a]	64	1.24	0.5	32	19.2	>128	8	16	4	17.3	8	–	–	–
CN(c1nc2nc(N)nc(N)c2c2c1CCCC2)C1CCCCC1 [VII-b]	64	1.37	<0.125	4	19.2	128	4	8	8	5.94	4	–	–	–
Cc1cc(NCc2cc(F)c(F)c(F)c2)nc2nc([N+](=O)[O-])nc([N+](=O)[O-])c12 [VIII-a]	32	–	4	8	–	64	16	8	16	–	2	22.2	> 30.8	–
Cc1cc(NCc2cc(F)cc(C(F)(F)F)c2)nc2nc([N+](=O)[O-])nc([N+](=O)[O-])c12 [VIII-b]	64	–	2	4	–	64	4	8	8	–	4	12.1	> 16.4	–
CN(Cc1cnc2nc(N)nc(N)c2n1)c1ccc(C(=O)N[C@@H](CCC(=O)O)C(=O)O)cc1 [methotrexate]	–	–	–	–	–	–	–	–	–	–	–	–	–	not to inhibit
COc1cc(Cc2cnc(N)nc2N)cc(OC)c1OC [trimethoprim]	–	–	–	–	–	–	–	–	–	–	–	–	–	not to inhibit
